Data as given in PubChem BioAssay AID2060503 (Molecular Pharmacology Branch, DTP, NCI, 2025).

System: 817829-284-R-J1-PDC complex spheroids, viability
Assay: Anticancer human tumor 817829-284-R-J1-PDC patient-derived colon adenocarcinoma cell line growth inhibition [GQUAD]
Details: for IC50: curve of first compound; for viability, T/C: stronger effect = lower value
Description: DNA G-quadruplex Stabilizer Agents in Combinations in Complex Spheroids
A high-throughput screen of multi-cell type tumor spheroids was designed to identify active combinations of DNA G-quadruplex stabilizer agents and targeted small molecules. Complex spheroids include a stromal component modeled by human endothelial cells (HUVEC) and fibroblasts modeled by human mesenchymal stem cells (MSCs). The concentration ranges selected for each drug and investigational agent were based upon clinically achievable concentrations if the clinical Cmax of the agent was known.
Compounds. The drugs and investigational agents: pidnarulex (CX-5461; NSC782164), APTO-253 (NSC789042), BRACO-19 (NSC847499), peposertib (NSC802822), ceralasertib (NSC780249), elimusertib (NSC800525), camonsertib (NSC841442), AZD-1390 (NSC803789), olaparib (NSC753686), talazoparib (NSC767125), ART-558 (NSC835418), sotorasib (NSC818433), MRTX-1133 (NSC836407), SN-38 (NSC673596), topotecan (NSC609699), etoposide (NSC141540), doxorubicin (NSC123127), gemcitabine (NSC613327), 5-fluorouracil (NSC19893), paclitaxel (NSC125973), vemurafenib (NSC761431), panobinostat (NSC761190), R-306465 (JNJ-16241199; NSC773264), adavosertib (NSC754352), TP-3654 (NSC805149), carboplatin (NSC241240), KSQ-4279 (NSC840948), and staurosporine (NSC755774) were obtained from the National Cancer Institute (NCI) Developmental Therapeutics Program Chemical Repository (34). The FDA-approved anticancer drug set is available from the NCI Developmental Therapeutics Program. […] The stock solutions were prepared in dimethyl sulfoxide (DMSO, Sigma-Aldrich, St. Louis, MO, cat. D2650) at 800-fold the tested concentration and stored at -70 degrees C prior to their use. All drugs and investigational agents were tested over a range starting from a high concentration at or near the clinical Cmax and decreasing in half-log increments. If the clinical Cmax for an agent had not been determined, the highest concentration tested was 10 microM.
2.3 Cell Culture. All cells were maintained in an incubator at 37 degrees C and 5% CO2 with 95% humidity. The PDC lines were cultured according to standard operating procedures established by the NCI PDMR. All PDCs were thawed and cultured in Matrigel-coated flasks prepared with a working solution of 1X Ham's F-12 nutrient mix, without supplementation (Invitrogen, cat. 11765054), 100 U/mL penicillin-streptomycin (Invitrogen, cat. 15140122), and 2.5% Matrigel (Corning Inc., cat. 354248) for the first three passages. The 857933-349-R-J2-PDC line was cultured in 6C/Colon 1B media, which includes advanced DMEM/F-12 (Thermo Fisher Scientific, cat. 12634028), 10 mM HEPES (Thermo Fisher Scientific, cat. 15630080), 1X GlutaMAX supplement (Thermo Fisher Scientific, cat. 35050061), 0.1 mg/mL primocin (InvivoGen, cat. ant-pm-2), 10% defined fetal bovine serum, heat inactivated (HyClone Laboratories Inc., cat. SH30070.03HI), 50% L-WRN conditioned media (ATCC, cat. CRL-3276), 1.25 mM N-Acetyl-L-cysteine (Sigma-Aldrich, cat. A9165), 10 mM nicotinamide (Sigma-Aldrich, cat. N0636), 1X B-27 supplement (Thermo Fisher Scientific, cat. 17504044), 1X N-2 supplement (Thermo Fisher Scientific, cat. 17502048), 10 microM Y-27632 dihydrochloride (Tocris Bioscience, cat. 1254), and 50 ng/mL human EGF recombinant protein (Thermo Fisher Scientific, cat. PHG0311). The 485176-168-R4-J1-PDC line was cultured in Panc media, which includes all 6C/Colon 1B media components plus 100 ng/mL human FGF-10 (Thermo Fisher Scientific, cat. 100-26), 500 nM SB-431542 (Selleckchem, cat. S1067), and gastrin (Tocris, cat. 3006).
[…]

[1] = second compound 0.0316 µM, first compound 0.0316 µM
[2] = second compound 0.0316 µM, first compound 0.316 µM
[3] = second compound 0.1 µM, first compound 0.0316 µM
[4] = second compound 0.1 µM, first compound 0.316 µM
[5] = second compound 0.316 µM, first compound 0.0316 µM
[6] = second compound 0.316 µM, first compound 0.316 µM
[7] = second compound 1 µM, first compound 0.0316 µM
[8] = second compound 1 µM, first compound 0.316 µM
[9] = second compound 3.16 µM, first compound 0.0316 µM
[10] = second compound 3.16 µM, first compound 0.316 µM
[11] = second compound 10 µM, first compound 0.0316 µM
[12] = second compound 10 µM, first compound 0.316 µM
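Further: spheroids exposed to agents for 7 days before readout.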
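Wherever viability, T/C is given: percent viability relative to DMSO vehicle control taken as 100%.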

SMILES: CC(=O)O[C@H]1C(=O)[C@@]2(C)[C@H]([C@H](OC(=O)c3ccccc3)[C@]3(O)C[C@H](OC(=O)[C@H](O)[C@@H](NC(=O)c4ccccc4)c4ccccc4)C(C)=C1C3(C)C)[C@]1(OC(C)=O)CO[C@@H]1C[C@@H]2O + Cc1[nH]c2ccc(F)cc2c1-c1nc2c3cccnc3c3ncccc3c2[nH]1
- IC50 (second compound 0.0316 µM): < 31.6 nM
- IC50 (second compound 0.1 µM): < 31.6 nM
- IC50 (second compound 0.316 µM): < 31.6 nM
- IC50 (second compound 1 µM): < 31.6 nM
- IC50 (second compound 3.16 µM): < 31.6 nM
- IC50 (second compound 10 µM): < 31.6 nM
- viability, T/C [1]: 7.69%
- viability, T/C (second compound 0.0316 µM, first compound 0.1 µM): 5%
- viability, T/C [2]: 4.12%
- viability, T/C (second compound 0.0316 µM, first compound 1 µM): 4.33%
- viability, T/C (second compound 0.0316 µM, first compound 3.16 µM): 3.69%
- viability, T/C (second compound 0.0316 µM, first compound 10 µM): 5.32%
- viability, T/C [3]: 6.62%
- viability, T/C (second compound 0.1 µM, first compound 0.1 µM): 5.4%
- viability, T/C [4]: 5.3%
- viability, T/C (second compound 0.1 µM, first compound 1 µM): 3.81%
- viability, T/C (second compound 0.1 µM, first compound 3.16 µM): 4.86%
- viability, T/C (second compound 0.1 µM, first compound 10 µM): 4.62%
- viability, T/C [5]: 7.16%
- viability, T/C (second compound 0.316 µM, first compound 0.1 µM): 5.87%
- viability, T/C [6]: 4.46%
- viability, T/C (second compound 0.316 µM, first compound 1 µM): 3.72%
- viability, T/C (second compound 0.316 µM, first compound 3.16 µM): 4.25%
- viability, T/C (second compound 0.316 µM, first compound 10 µM): 5.31%
- viability, T/C [7]: 7.59%
- viability, T/C (second compound 1 µM, first compound 0.1 µM): 6.66%
- viability, T/C [8]: 6.33%
- viability, T/C (second compound 1 µM, first compound 1 µM): 6.63%
- viability, T/C (second compound 1 µM, first compound 3.16 µM): 6.34%
- viability, T/C (second compound 1 µM, first compound 10 µM): 6.37%
- viability, T/C [9]: 3.48%
- viability, T/C (second compound 3.16 µM, first compound 0.1 µM): 4.37%
- viability, T/C [10]: 3.76%
- viability, T/C (second compound 3.16 µM, first compound 1 µM): 3.37%
- viability, T/C (second compound 3.16 µM, first compound 3.16 µM): 3.38%
- viability, T/C (second compound 3.16 µM, first compound 10 µM): 3.67%
- viability, T/C [11]: 3.27%
- viability, T/C (second compound 10 µM, first compound 0.1 µM): 3.76%
- viability, T/C [12]: 3.43%
- viability, T/C (second compound 10 µM, first compound 1 µM): 2.91%
- viability, T/C (second compound 10 µM, first compound 3.16 µM): 3.42%
- viability, T/C (second compound 10 µM, first compound 10 µM): 3.04%

SMILES: CC[C@@]1(O)C(=O)OCc2c1cc1n(c2=O)Cc2cc3c(CN(C)C)c(O)ccc3nc2-1 + Cc1[nH]c2ccc(F)cc2c1-c1nc2c3cccnc3c3ncccc3c2[nH]1
- IC50 (second compound 0.0316 µM): 47.6 nM
- IC50 (second compound 0.1 µM): 60.3 nM
- IC50 (second compound 0.316 µM): 51.7 nM
- IC50 (second compound 1 µM): 52.2 nM
- IC50 (second compound 3.16 µM): 26.5 nM
- IC50 (second compound 10 µM): < 0.999 nM
- viability, T/C (second compound 0.0316 µM, first compound 0.000999 µM): 119%
- viability, T/C (second compound 0.0316 µM, first compound 0.00316 µM): 84.5%
- viability, T/C (second compound 0.0316 µM, first compound 0.00999 µM): 92.7%
- viability, T/C [1]: 51.8%
- viability, T/C (second compound 0.0316 µM, first compound 0.0999 µM): 34.9%
- viability, T/C [2]: 26.6%
- viability, T/C (second compound 0.1 µM, first compound 0.000999 µM): 98.8%
- viability, T/C (second compound 0.1 µM, first compound 0.00316 µM): 104%
- viability, T/C (second compound 0.1 µM, first compound 0.00999 µM): 88.6%
- viability, T/C [3]: 70.9%
- viability, T/C (second compound 0.1 µM, first compound 0.0999 µM): 33.1%
- viability, T/C [4]: 27.1%
- viability, T/C (second compound 0.316 µM, first compound 0.000999 µM): 90%
- viability, T/C (second compound 0.316 µM, first compound 0.00316 µM): 111%
- viability, T/C (second compound 0.316 µM, first compound 0.00999 µM): 101%
- viability, T/C [5]: 63.6%
- viability, T/C (second compound 0.316 µM, first compound 0.0999 µM): 34.2%
- viability, T/C [6]: 26.1%
- viability, T/C (second compound 1 µM, first compound 0.000999 µM): 91.8%
- viability, T/C (second compound 1 µM, first compound 0.00316 µM): 110%
- viability, T/C (second compound 1 µM, first compound 0.00999 µM): 109%
- viability, T/C [7]: 64.8%
- viability, T/C (second compound 1 µM, first compound 0.0999 µM): 32.4%
- viability, T/C [8]: 29.1%
- viability, T/C (second compound 3.16 µM, first compound 0.000999 µM): 108%
- viability, T/C (second compound 3.16 µM, first compound 0.00316 µM): 111%
- viability, T/C (second compound 3.16 µM, first compound 0.00999 µM): 95.1%
- viability, T/C [9]: 41.9%
- viability, T/C (second compound 3.16 µM, first compound 0.0999 µM): 18.2%
- viability, T/C [10]: 15.7%
- viability, T/C (second compound 10 µM, first compound 0.000999 µM): 11%
- viability, T/C (second compound 10 µM, first compound 0.00316 µM): 22.5%
- viability, T/C (second compound 10 µM, first compound 0.00999 µM): 26.1%
- viability, T/C [11]: 7.2%
- viability, T/C (second compound 10 µM, first compound 0.0999 µM): 5.98%
- viability, T/C [12]: 5.1%
